According to US11130769B2 (Prelude Therapeutics Incorporated, priority 2018, dated 2021):
Like-named read-outs stand apart in the source and are kept apart here.

What was measured:
MCL-1 = MCL-1 (Homo sapiens (Human), UniProt Q07820); assay: Cell free Mcl-1:Bim affinity assay (fluorescence polarization competition); assay type: binding; conditions: 15 nM MCL-1, 5 nM FITC-Bim, 1 hour at room temperature, read-out: BIM_Ki
Method in brief: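 Compounds competed with FITC-labelled Bim peptide (5 nM) for MCL-1 (15 nM) in HEPES/NaCl buffer with 1% DMSO, 1 h at room temperature. Fluorescence polarization (535 nm emission) gave % inhibition versus DMSO and positive controls; IC50 from 10-point curves, converted to Ki by the Nikolovska-Coleska equation.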

H929 cells = assay: Cell viability assay (H929 10 FBS); assay type: cell-based; conditions: Homo sapiens, NCI-H929, 24 hours, read-out: H929_10FBS IC50
Method in brief: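 H929 cells, 4000/well, in RPMI 1640 with 10% FBS, sodium pyruvate, HEPES and glucose were exposed to compound 24 h at 37 °C. Viability read as luminescence after 30-60 min at RT with CellTiter-Glo or ATPlite 1 Step.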

Sequence of MCL-1 (Q07820 whole entry): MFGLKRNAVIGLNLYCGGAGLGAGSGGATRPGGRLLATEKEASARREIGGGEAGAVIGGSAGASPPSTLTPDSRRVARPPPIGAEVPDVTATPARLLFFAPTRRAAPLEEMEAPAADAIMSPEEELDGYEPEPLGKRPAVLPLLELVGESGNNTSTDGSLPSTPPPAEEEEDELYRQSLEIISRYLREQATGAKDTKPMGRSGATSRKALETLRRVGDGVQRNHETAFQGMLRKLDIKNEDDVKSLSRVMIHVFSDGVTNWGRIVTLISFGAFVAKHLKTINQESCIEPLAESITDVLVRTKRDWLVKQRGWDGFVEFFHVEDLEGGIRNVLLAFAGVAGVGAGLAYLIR

Ki (MCL-1; numeric values) [nM] | IC50 (H929 cells) [nM] | Ki (MCL-1; class symbols) [nM] | Structure (SMILES)
57 | > 1000 |  | CC(C)(C)OC(=O)N1CCC(CC(=O)NS(=O)(=O)c2ccc3c(c2)N(CC2CCC2)CC2(CCCc4cc(Cl)ccc42)CO3)CC1 (stereo not shown) [Example 22, tert-Butyl 4-[2-[[6′-chloro-5-(cyclobutylmethyl)spiro[2,4-dihydro-1,5-benzoxazepine-3,1′-tetralin]-7-yl]sulfonylamino]-2-oxo-ethyl]piperidine-1-carboxylate]
 | < 500 | < 1 | CN(C)C(=O)O[C@@H]1/C=C/COC(C)(C)C(=O)NS(=O)(=O)c2ccc3c(c2)N(C[C@@H]2CC[C@H]21)C[C@@]1(CCCc2cc(Cl)ccc21)CO3 [Example 37, [(3R,6R,7R,8E,22S)-6′-Chloro-12,12-dimethyl-13,15,15-trioxo-spiro[11,20-dioxa-15-thia-1,14-diazatetracyclo[14.7.2.03,6.019,24]pentacosa-8,16,18,24-tetraene-22,1′-tetralin]-7-yl] N,N-dimethylcarbamate]
 | < 500 | < 1 | CN(C)C(=O)CO[C@@H]1/C=C/COC2(CC2)C(=O)NS(=O)(=O)c2ccc3c(c2)N(C[C@@H]2CC[C@H]21)C[C@@]1(CCCc2cc(Cl)ccc21)CO3 [Example 143, 2-[(3R,6R,7R,8E,22S)-6′-Chloro-12,12-ethylene-13,15,15-trioxo-spiro[11,20-dioxa-15-thia-1,14-diazatetracyclo[14.7.2.03,6.019,24]pentacosa-8,16,18,24-tetraene-22,1′-tetralin]-7-yl]oxy-N,N-dimethyl-acetamide]
 | < 500 | < 1 | CNC(=O)O[C@H]1/C=C/COC(C)(C)C(=O)NS(=O)(=O)c2ccc3c(c2)N(C[C@@H]2CC[C@H]21)C[C@@]1(CCCc2cc(Cl)ccc21)CO3 [Example 50, [(3R,6R,7S,8E,22S)-6′-Chloro-12,12-dimethyl-13,15,15-trioxo-spiro[11,20-dioxa-15-thia-1,14-diazatetracyclo[14.7.2.03,6.019,24]pentacosa-8,16,18,24-tetraene-22,1′-tetralin]-7-yl] N-methylcarbamate]
 | < 500 | < 1 | O=C1NS(=O)(=O)c2ccc3c(c2)N(C[C@@H]2CC[C@H]2[C@H](O)/C=C/COC12CC2)C[C@@]1(CCCc2cc(Cl)ccc21)CO3 [Example 38, (3R,6R,7R,8E,22S)-6′-Chloro-7-hydroxy-12,12-ethylene-15,15-dioxo-spiro[11,20-dioxa-15-thia-1,14-diazatetracyclo[14.7.2.03,6.019,24]pentacosa[8,16(25),17,19(24)]tetraene-22,1′-tetralin]-13-one]
 | < 500 | < 1 | CN(C)C(=O)O[C@@]1(C)/C=C/COC(C)(C)C(=O)NS(=O)(=O)c2ccc3c(c2)N(C[C@@H]2CC[C@H]21)C[C@@]1(CCCc2cc(Cl)ccc21)CO3 [Example 293, [(3R,6R,7S,8E,22S)-6′-chloro-7,12,12-trimethyl-13,15,15-trioxo-spiro[11,20-dioxa-15-thia-1,14-diazatetracyclo[14.7.2.03,6.019,24]pentacosa-8,16,18,24-tetraene-22,1′-tetralin]-7-yl] N,N-dimethylcarbamate]
15.8 | > 1000 |  | CC(=O)NS(=O)(=O)c1ccc2c(c1)N(CC1CCC1)C[C@@]1(CCCc3cc(Cl)ccc31)CO2 [Example 12, N-[(3S)-6′-Chloro-5-(cyclobutylmethyl)spiro[2,4-dihydro-1,5-benzoxazepine-3,1′-tetralin]-7-yl]sulfonylacetamide]

Further lines, the molecule ahead of its results:

Structure (SMILES) | Ki (MCL-1; numeric values) [nM] | IC50 (H929 cells) [nM] | Ki (MCL-1; class symbols) [nM]
CN1C(=O)OC[C@@H]2CC[C@H]2CN2C[C@@]3(CCCc4cc(Cl)ccc43)COc3ccc(cc32)S(=O)(=O)NC(=O)N2CC[C@@H]1C2 [Example 101, (3R,6R,11R,24S)-6′-Chloro-10-methyl-17,17-dioxo-spiro[8,22-dioxa-17-thia-1,10,14,16-tetrazapentacyclo[16.7.2.111,14.03,6.021,26]octacosa-18(27),19,21(26)-triene-24,1′-tetralin]-9,15-dione] |  | > 1000 | < 1
CC1(C)OC/C=C/[C@H](OCC(=O)N2CCC2)[C@@H]2CC[C@H]2CN2C[C@@]3(CCCc4cc(Cl)ccc43)COc3ccc(cc32)S(=O)(=O)NC1=O [Example 279, (3R,6R,7S,8E,22S)-7-[2-(Azetidin-1-yl)-2-oxo-ethoxy]-6′-chloro-12,12-dimethyl-15,15-dioxo-spiro[11,20-dioxa-15-thia-1,14-diazatetracyclo[14.7.2.03,6.019,24]pentacosa-8,16,18,24-tetraene-22,1′-tetralin]-13-one] |  | < 500 | < 1
COCCN1CCCN(C(=O)O[C@H]2/C=C/COC(C)(C)C(=O)NS(=O)(=O)c3ccc4c(c3)N(C[C@@H]3CC[C@H]32)C[C@@]2(CCCc3cc(Cl)ccc32)CO4)CC1 [Example 60, [(3R,6R,7S,8E,22S)-6′-Chloro-12,12-dimethyl-13,15,15-trioxo-spiro[11,20-dioxa-15-thia-1,14-diazatetracyclo[14.7.2.03,6.019,24]pentacosa-8,16,18,24-tetraene-22,1′-tetralin]-7-yl] 4-(2-methoxyethyl)-1,4-diazepane-1-carboxylate] |  | < 500 | < 1
CN(C(=O)O[C@H]1/C=C/COC(C)(C)C(=O)NS(=O)(=O)c2ccc3c(c2)N(C[C@@H]2CC[C@H]21)C[C@@]1(CCCc2cc(Cl)ccc21)CO3)[C@H]1CCOC1 [Example 202, [(3R,6R,7S,8E,22S)-6′-Chloro-12,12-dimethyl-13,15,15-trioxo-spiro[11,20-dioxa-15-thia-1,14-diazatetracyclo[14.7.2.03,6.019,24]pentacosa-8,16,18,24-tetraene-22,1′-tetralin]-7-yl] N-methyl-N-[(3S)-tetrahydrofuran-3-yl]carbamate] |  | < 500 | < 1
CN1CCN(C(=O)O[C@H]2/C=C/COC(C)(C)C(=O)NS(=O)(=O)c3ccc4c(c3)N(C[C@@H]3CC[C@H]32)C[C@@]2(CCCc3cc(Cl)ccc32)CO4)CC1 [Example 189, [(3R,6R,7S,8E,22S)-6′-Chloro-12,12-dimethyl-13,15,15-trioxo-spiro[11,20-dioxa-15-thia-1,14-diazatetracyclo[14.7.2.03,6.019,24]pentacosa-8,16,18,24-tetraene-22,1′-tetralin]-7-yl] 4-methylpiperazine-1-carboxylate] |  | < 500 | < 1
CC1(C)OC/C=C/[C@H](OC(=O)N2CC(F)(F)C2)[C@@H]2CC[C@H]2CN2C[C@@]3(CCCc4cc(Cl)ccc43)COc3ccc(cc32)S(=O)(=O)NC1=O [Example 49, [(3R,6R,7S,8E,22S)-6′-Chloro-12,12-dimethyl-13,15,15-trioxo-spiro[11,20-dioxa-15-thia-1,14-diazatetracyclo[14.7.2.03,6.019,24]pentacosa-8,16,18,24-tetraene-22,1′-tetralin]-7-yl] 3,3-difluoroazetidine-1-carboxylate] |  | < 500 | < 1
CC1(C)OC/C=C/[C@H](OC(=O)N2CC3CCC(C2)O3)[C@@H]2CC[C@H]2CN2C[C@@]3(CCCc4cc(Cl)ccc43)COc3ccc(cc32)S(=O)(=O)NC1=O [Example 170, [(3R,6R,7S,8E,22S)-6′-Chloro-12,12-dimethyl-13,15,15-trioxo-spiro[11,20-dioxa-15-thia-1,14-diazatetracyclo[14.7.2.03,6.019,24]pentacosa-8,16,18,24-tetraene-22,1′-tetralin]-7-yl] 8-oxa-3-azabicyclo[3.2.1]octane-3-carboxylate] |  | < 1000 | < 1
